Experimental findings from PubChem BioAssay (NCI) are described below.

Common to all, as to experiment: growth of human tumour cells (NCI), 48 h
Assay [1] deals with SK-MEL-2 melanoma.
In assay [2] the test system is KM12 colon.
Assay [3] relates to DLD-1 colon.
The test system of assay [4] is KM20L2 colon.
For assay [5], the system named is HOP-18 NSCLC.
The test system of assay [6] is M19-MEL melanoma.
For assay [7], the system named is SNB-78 CNS.
Assay [8] relates to LXFL 529 NSCLC.
For assay [9], the system named is DMS 273 small cell lung.
Assay [10] relates to DMS 114 small cell lung.

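Tested at 5 concentrations; 48 h exposure; 96-well plates; endpoints linearly interpolated, else capped at highest concentration. TGI marks complete inhibition of growth.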 Bounds are passed on as bounds.

In the case of `Cc1[nH]c(C)c(CN(C)C)c1CN(C)C`, the TGI in assay [1] and in [2] was above 100 µM each time.
Consider `Cc1c(C(=O)c2ccccc2)[n+](=O)c2cc(Cl)c(Cl)cc2n1[O-]`, for which the TGI in assay [1] worked out at 21.3 µM; in [2], 23 µM.
In the case of `C/C(O)=C(\C=N\C(=S)N=Nc1c(O)[nH]c2ccccc12)C(=O)Nc1ccccc1C`, the TGI in assay [1] and in assay [2] was above 100 µM throughout.
`C=C(C)[C@H]1CC[C@@]23O[C@@H]2[C@@H](C[C@@]2(C)CC(=O)[C@H](CC(=O)C1)O2)OC(=O)[C@@]12CC[C@H](C(=C)C)CC(=O)C[C@H]4O[C@](C)(CC4=O)C[C@@H](OC3=O)[C@@H]1O2`: the TGI in [1] and in assay [2] was above 100 µM throughout.
In the case of `CC(O)CNC(=O)Nc1c(C(F)(F)F)cc(-c2ccccc2)[nH]c1=O` (stereo not drawn), the TGI in assay [1] and in assay [2] was above 100 µM throughout.
Take `N=c1oc2ccccc2cc1C(=O)Nc1cccc2ccccc12`: the TGI in [1] and in [2] was above 100 µM in each case.
Consider `C=C1CN=C(Nc2ccc(Cl)cc2)S1`, for which the TGI in assay [1] and in [2] was above 100 µM throughout.
As for `COC(=O)[C@@H]1C[C@@H](O)CN1C(=O)c1ccc([N+](=O)[O-])cc1[N+](=O)[O-]`, the TGI in [1] and in assay [2] was above 100 µM in each case.
As for `CSC1=NN(C(C)=O)C(C(OC(C)=O)C(OC(C)=O)C(OC(C)=O)C(COC(C)=O)OC(C)=O)S1` (stereo not drawn), the TGI in assay [1] and in assay [2] was above 100 µM each time.
Consider `CN(C)c1ccc(C=Nc2ccc(-c3nc4ccccc4s3)cc2)cc1`, for which the TGI in [1] is 58.9 µM; in [2], above 100 µM.
Consider `CC1(c2ccccc2)O[C@@H]2C[C@H]3[C@@H]4CCC5=CC(=O)C=C[C@]5(C)[C@@]4(F)[C@@H](O)C[C@]3(C)[C@]2(C(=O)CO)O1` (stereo partly drawn), for which the TGI in [1] came out at 28.3 µM; in [2], 30 µM.
With `O=c1[nH]c2c(c(=O)[nH]1)SC(c1ccccc1)C2` (stereo not drawn), the TGI in assay [1] and in assay [2] was above 100 µM in each case.
Consider `CCOC(=O)C1=C(C)N(c2ccc(Cl)cc2)C2(O)C=CC(=O)C3=C(O)c4ccccc4C(=O)C312` (stereo not drawn), for which the TGI was 16.2 µM in assay [1] and 20.4 µM in [2].
As to `CN1CCC2(c3ccccc3)CC(=O)/C(=C/c3ccc(Cl)c(Cl)c3)C1C2` (stereo not drawn), the TGI worked out at 9.87 µM in [1] and 4.14 µM in [2].
Take `CCc1n[nH]c(=O)n1CC`: the TGI in [1] and in [2] was above 100 µM throughout.
With `C=C(C)C1CC[C@@](C)(O)[C@H](C#N)C1` (stereo partly drawn), the TGI in assay [1] and in [2] was above 100 µM each time.
For `O=C1CSC(c2ccccc2O)N1c1ccc2c(c1)Oc1c(Cl)c3c(c(Cl)c1=N2)Oc1cc(N2C(=O)CSC2c2ccccc2O)ccc1N=3` (stereo not drawn), the TGI in assay [1] and in assay [2] was above 100 µM in each case.
Consider `O[C@@]1(C#Cc2ccc3c(c2)OCO3)CCC[C@H]1NCc1ccccc1`, for which the values for the TGI in [1] and in assay [2] were 31.9 µM and 42.7 µM, respectively.
For `CC(=O)NS(=O)(=O)c1ccc(NCc2cccc3c(=O)c4ccc(Cl)cc4oc23)cc1`, the TGI in assay [1] was above 93.6 µM; in [2], above 100 µM.
With `Cc1cc(=O)oc2c1cc1ccc3cccc4ccc2c1c34`, the TGI in assay [3], in assay [4], in assay [1], in assay [5], in assay [6] and in [7] was above 100 µM each time. This compound had a TGI in assay [8] above 100 µM.
Consider `O=C(Sc1c(-c2ccccc2)c(=O)n(-c2ccccc2)c(=S)n1-c1ccccc1)c1ccccc1`, for which the TGI in [1] and in [2] was above 100 µM throughout.
Regarding `COc1ccc(-c2sc(Br)c3c2C(=O)C2OC(=O)NC32)cc1OC` (stereo not drawn), the TGI in assay [1] and in assay [2] was above 100 µM throughout.
As to `O=S1SC(=S)C2C=CC=NC21` (stereo not drawn), the TGI in assay [1] is 36.6 µM; in assay [2], above 100 µM.
As for `CC1(C)CC[C@]2(C(=O)O)CC[C@]3(C)C(=CCC4=C5C[C@H](O)[C@H](O)[C@@](C)(CO)[C@@]5(C)CC[C@]43C)[C@@H]2C1`, the TGI in assay [1] and in [2] was above 100 µM in each case.
Regarding `COc1cc(S(=O)(=O)Nc2ccc(-c3csc(N4C(=O)C(C)SC4c4cccs4)n3)cc2)ccc1Cl` (stereo not drawn), the values for the TGI in assay [1] and in assay [2] were 22.8 µM and 23 µM, respectively.
For the compound `CCCCCCCCOC(=O)C12Oc3ccc(-c4ccc5c(c4O)C(O)=C4C(=O)CC(C)C(O)C4(C(=O)OCCCCCCCC)O5)c(O)c3C(O)=C1C(=O)CC(C)C2O` (stereo not drawn), the TGI in assay [1] is 47.4 µM; in assay [2], above 100 µM.
For `CCCCC(=O)/C=c1/cc(C)[nH]c2cccc3cnn1c32` the same measures were above 100 µM and above 100 µM.
For `COC(=O)C1(C(=O)OC)N=C(C)OC1c1ccccc1O` (stereo not drawn) the same measures were above 100 µM and above 100 µM.
For the compound `Clc1sc(Cl)c2c1[C@H](Cl)C[C@@H]2Cl`, the TGI was 65.9 µM in assay [1] and above 100 µM in [2].
Consider `COCn1cc(C2=C(C)C(=O)C(C)=C(C)C2=O)cn1`, for which the TGI in [1] and in [2] was above 100 µM throughout.
For `COC(=O)c1cc(CC2Cc3cc4c(cc3C2=O)CCC4)cc2c1CCC2` (stereo not drawn), the TGI in [1] and in [2] was above 100 µM in each case.
Consider `O=C1Nc2ccc(Br)cc2/C1=N/S(=O)(=O)O`, for which the values for the TGI in [1] and in assay [2] were 22.4 µM and above 100 µM, respectively.
In the case of `CNC(=O)C(C)Oc1ccc(OCC2CCCCC2)cc1` (stereo not drawn), the TGI in assay [3], in assay [1], in assay [5], in assay [9], in assay [6] and in assay [7] was above 100 µM in each case. The TGI in assay [10], in assay [2] and in assay [8] was above 100 µM throughout.
